In brackets after ≈: the same amount, converted by molar mass. Like-named read-outs stand apart in the source and are kept apart here.
Assays:
U251 (glioma, CNS) = test: cells
Method: The GI50 values (growth inhibitory activity) (Table 1) refer to the drug concentration that produces a 50% reduction of cellular growth compared with the untreated control cells. The TGI (cytostatic activity) and LC50 (cytotoxic activity) values (Table 2) refer to the drug concentration required for total growth inhibition and killing 50% of the cells, respectively.
The synthesized compounds were assessed in the following ten human tumor cell lines from various tissues kindly provide by the National Cancer Institute (Frederick, MD, USA): U251 (glioma, CNS), MCF-7 (breast), NCI-ADR/RES (breast expressing the multiple drug resistance phenotype), 786-0 (renal), NCI-H460 (lung, non-small cells), PC-3 (prostate), OVCAR-3 (ovarian), HT-29 (colon), K-562 (leukemia) and HaCaT (keratinocytes). Stock cultures were grown in media containing 5 mL of RPMI 1640 (Gibco BRL) supplemented with 5% fetal bovine serum. Gentamicin ([…]) was added to the experimental cultures. Cells in 96-well plates (100 µL cells/well) were exposed to sample concentrations in DMSO/RPMI (0.25, 2.5, 25, and 250 µg/mL) at 37 °C and 5% CO2 for 48 h. […] Next, cells were fixed with 50% trichloroacetic acid, and cell proliferation was determined by spectrophotometric quantification (540 nm) of cellular protein content employing the sulforhodamine B assay. Doxorubicin (0.025–25 µg/mL) was used as a positive control. Three measurements were obtained: first at time point zero (T0, at the beginning of incubation) and then 48 h post-incubation for both the compound-free (C) and tested (T) cells. Cell proliferation was determined using the equation 100 × [(T − T0)/C − T0]. A cytostatic effect was observed when T ≥ T0, while a cytocidal effect occurred when T < T0. The experiments were performed in triplicate.

OVCAR-3 (ovarian) = test: Anticancer assay in vitro (sulforhodamine B), OVCAR-3; assay type: cell-based; conditions: for GI50: OVCAR-3, 48 h, SRB; for TGI: OVCAR-3, total growth inhibition, 48 h
Method: (§1) The experiments were performed in triplicate.

786-0 (renal) = test: cells; assay type: cell-based; conditions: for GI50: 786-0, 48 h, SRB
Method: as §1

[1] = system: NCI-ADR/RES (breast expressing the multiple drug resistance phenotype); test: cells; assay type: cell-based; conditions: NCI/ADR-RES, 48 h; for GI50: SRB; for TGI: total growth inhibition
Method: as §1

PC-3 (prostate) = test: cells; assay type: cell-based; conditions: for GI50: PC-3, 48 h, SRB; for TGI: PC-3, total growth inhibition, 48 h
Method: as §1

HaCaT (keratinocytes) = test: Anticancer assay in vitro (sulforhodamine B), HaCaT; assay type: cell-based; conditions: 48 h; for GI50: SRB; for TGI: total growth inhibition
Method: as §1

[2] = system: ten human tumor cell lines; test: Anticancer assay in vitro (sulforhodamine B), statements over the panel of cell lines; assay type: cell-based; conditions: for GI50: bound or range over all (for 4: nine) human tumor cell lines, read-out: GI50 values over the cell lines tested
Method: as §1

MCF-7 (breast) = test: Anticancer assay in vitro (sulforhodamine B), MCF-7; assay type: cell-based; conditions: for GI50: MCF-7, 48 h, SRB; for TGI: MCF-7, total growth inhibition
Method: as §1

HT-29 (colon) = test: Anticancer assay in vitro (sulforhodamine B), HT-29; assay type: cell-based; conditions: for GI50: HT-29, 48 h, SRB; for TGI: HT-29, total growth inhibition, 48 h
Method: as §1

K-562 (leukemia) = test: cells; assay type: cell-based; conditions: for GI50: K-562, 48 h, SRB
Method: as §1

[3] = system: NCI-H460 (lung, non-small cells); test: cells; assay type: cell-based; conditions: for GI50: NCI-H460, 48 h, SRB
Method: as §1

[4] = Anticancer assay in vitro (sulforhodamine B), HaCaT; assay type: cell-based; conditions: human, HaCaT keratinocytes, killing 50% of cells, read-out: LC50
Method: as §1

[5] = K-562, total growth inhibition, 48 h

Row | Molecule | GI50 (U251 (glioma, CNS); Homo sapiens, U-251, 48 h) | GI50 (OVCAR-3 (ovarian); Homo sapiens) | GI50 (786-0 (renal); Homo sapiens) | GI50 ([1]; Homo sapiens) | GI50 (PC-3 (prostate); Homo sapiens) | TGI (PC-3 (prostate)) | GI50 (HaCaT (keratinocytes); Homo sapiens) | TGI (MCF-7 (breast); 48 h) | TGI (OVCAR-3 (ovarian)) | TGI (HT-29 (colon)) | TGI (K-562 (leukemia); [5]) | TGI [1] | TGI (HaCaT (keratinocytes)) | GI50 (MCF-7 (breast); Homo sapiens, MCF7) | GI50 (HT-29 (colon); Homo sapiens) | GI50 (K-562 (leukemia); Homo sapiens, K562) | GI50 ([3]; Homo sapiens) | other results
1 | O=C(N/N=C/c1ccc([N+](=O)[O-])cc1)c1cc(O)c(O)c(O)c1 [Compound 6, N'-(4-Nitrobenzylidene)galloyl hydrazide] | 5.12 µM | 5.91 µM | 7.6 µM | 8.46 µM | 14 µM | 84.67 µg/mL (≈ 267 µM) | 31.6 µM | – | – | – | – | – | – | – | – | – | – | cytotoxic efficacy ([2]; OVCAR-3 and K-562 cell lines): did not demonstrate cytotoxic efficacy
2 | Galloyl-2-thioxo-1,3,4-oxadiazole [Compound 9] | – | – | – | – | – | 18.09 µg/mL | – | 5.06 µg/mL | 13.62 µg/mL | 13.74 µg/mL | 11.35 µg/mL | 15.86 µg/mL | 16.53 µg/mL | – | – | – | – | LC50 (U251 (glioma, CNS)): (41.26) µg/mL; GI50 (U251 (glioma, CNS); U251, 48 h, SRB): 4.2 µM; TGI (U251 (glioma, CNS); U251, total growth inhibition, 48 h): 14.58 µg/mL; GI50 (MCF-7 (breast)): 1.08 µM; LC50 (OVCAR-3 (ovarian)): (58.99) µg/mL; GI50 (OVCAR-3 (ovarian)): 0.89 µM; LC50 (HT-29 (colon)): (58.99) µg/mL; GI50 (HT-29 (colon)): 2.61 µM; GI50 (786-0 (renal)): 8.9 µM; TGI (786-0 (renal); 786-0, total growth inhibition, 48 h): 24.68 µg/mL; LC50 (K-562 (leukemia)): (58.99) µg/mL; GI50 (K-562 (leukemia)): 1.72 µM; GI50 [1]: 2.83 µM; LC50 [3]: (42.67) µg/mL; GI50 [3]: 8.77 µM; TGI ([3]; NCI-H460, total growth inhibition, 48 h): 19.43 µg/mL; LC50 (PC-3 (prostate)): (56.99) µg/mL; GI50 (PC-3 (prostate)): 6.05 µM; GI50 (HaCaT (keratinocytes)): 2.25 µM; GI50 [2]: < 8.9 µM
3 | O=C(N/N=C/c1ccccc1)c1cc(O)c(O)c(O)c1 [Compound 4, N'-(Benzylidene)galloyl hydrazide] | 7.8 µM | 1.24 µM | 9.06 µM | 7.16 µM | 5.07 µM | – | 8.29 µM | 23.54 µg/mL (≈ 86.5 µM) | 29.61 µg/mL (≈ 109 µM) | – | – | – | – | 5.55 µM | 7.53 µM | 9.96 µM | 11.2 µM | GI50 ([2]; Homo sapiens): 1.24 to 9.96 µM
4 | CN(C)c1ccc(/C=N/NC(=O)c2cc(O)c(O)c(O)c2)cc1 [Compound 5, N'-(4-Dimethylaminobenzylidene)galloyl hydrazide] | 24.1 µM | 2.93 µM | 8.93 µM | 4.68 µM | – | – | 4.05 µM | 20.26 µg/mL (≈ 64.3 µM) | 41.52 µg/mL (≈ 132 µM) | 48.50 µg/mL (≈ 154 µM) | 8.98 µg/mL | 83.07 µg/mL (≈ 263 µM) | 18.41 µg/mL (≈ 58.4 µM) | 8.61 µM | 16.2 µM | 2.05 µM | 21.6 µM | CC50 (MCF-7 (breast); Homo sapiens, MCF7, MCF-7, killing 50% of cells, 48 h, read-out: LC50 (the source's name)): 47.9 µg/mL (≈ 152 µM); TGI (K-562 (leukemia); K-562, as printed in the text): 8.98 µM; CC50 at 48 h [4]: 55.3 µg/mL (≈ 175 µM)

Source: paper PMC6272127, “Synthesis, Antiproliferative Activity and Molecular Properties Predictions of Galloyl Derivatives” (Molecules, 2015)
